Legend:
Parameters in all cases: dose 10 mg/kg, route oral
Homo sapiens [1] = assay: Cmax in children with uncomplicated malaria assessed as desethylamodiaquine at 10 mg/kg, po administered as single dose; format: ADME, organism-based; details: in vivo
Homo sapiens [2] = assay: Tmax in children with uncomplicated malaria assessed as desethylamodiaquine at 10 mg/kg, po administered as single dose; format: ADME, organism-based; details: in vivo
Homo sapiens [3] = assay: AUC in children with uncomplicated malaria assessed as desethylamodiaquine at 10 mg/kg, po administered as single dose; format: ADME, organism-based, Plasma; details: in vivo
Plasma = assay: Plasma concentration in children with uncomplicated malaria assessed as desethylamodiaquine at 10 mg/kg, po administered as single dose measured on day 3; format: ADME, organism-based; details: human, in vivo
Homo sapiens [4] = assay: Toxicity in children with uncomplicated malaria assessed as neutropenia at 10 mg/kg, po administered as single dose; format: organism-based; details: in vivo
Homo sapiens [5] = assay: Toxicity in children with uncomplicated malaria assessed as elevated serum aminotransferase levels at 10 mg/kg, po administered as single dose; format: organism-based; details: in vivo
Homo sapiens [6] = assay: Toxicity in children with uncomplicated malaria assessed as bradycardia at 10 mg/kg, po administered as single dose; format: organism-based; details: in vivo
Homo sapiens [7] = assay: Toxicity in children with uncomplicated malaria assessed as pruritus at 10 mg/kg, po administered as single dose; format: organism-based; details: in vivo
Homo sapiens [8] = assay: Toxicity in children with uncomplicated malaria assessed as excessive sleepiness at 10 mg/kg, po administered as single dose; format: organism-based; details: in vivo

| SMILES | Cmax (Homo sapiens [1]) [ng/mL] | Tmax (Homo sapiens [2]) [h] | AUC (Homo sapiens [3]) [ng·h/mL] | Activity (Plasma) [ng/mL] | Activity (Homo sapiens [4]) | Activity (Homo sapiens [5]) | Activity (Homo sapiens [6]) | Activity (Homo sapiens [7]) | Activity (Homo sapiens [8]) |
| --- | --- | --- | --- | --- | --- | --- | --- | --- | --- |
| CCN(CC)Cc1cc(Nc2ccnc3cc(Cl)ccc23)ccc1O.Cl | 1185 | 47.9 | 38516 |  |  |  |  |  |  |
| CCNCc1cc(Nc2ccnc3cc(Cl)ccc23)ccc1O [DESETHYL AMODIAQUINE] |  |  |  | 156.6 | Toxic | Toxic | Toxic | Toxic | Toxic |
